Values of other authors as cited in patent publication US11427542B2, “Compounds for treatment of cardiac arrhythmias and heart failure” (Elex Biotech, Inc., priority 2018, dated 2022).

Tested on: R176Q/+ mice
Conditions: cardiac pacing, versus placebo-treated

## CCCCNc1ccc(C(=O)OCCN(CC)CC)c(OC)c1 [Compound 1]
  arrhythmic development (bidirectional VT / sustained polymorphic VT) following pacing: protected from arrhythmic development following pacing
